Assay results taken from patent publication US9957214B2, “Multifunctional radical quenchers” (ARIZONA BOARD OF REGENTS ON BEHALF OF ARIZONA STATE …, priority 2012, dated 2018).

Columns and labels:
[1] = tested on: FRDA lymphocytes; test: Suppression of lipid peroxidation (C11-BODIPY581/591, FACS) in FRDA lymphocytes treated with diethyl maleate; type: cell-based; conditions: Lymphocyte, DEM, read-out: Scavenging activity (%), suppression of lipid peroxidation
Description: Several methods for assaying lipid peroxidation in vitro have been developed (Kuypers et al. (1987) Biochim Biophys Acta. 25, 266-274; Pap et al. (1999) FEBS Lett. 453, 278-282; Drummen et al. (2002) Free RadicBiol Med. 33, 473-490). Almost all of these methods are based on inhibition of free radical-induced oxidation reactions. A widely used fluorescence assay for lipid peroxidation uses lipid soluble cis-parinaric acid as a probe. cis-parinaric acid loses its fluorescence (λexc/em: 320/432 nm) upon interaction with peroxyl radicals and retains its fluorescence in the presence of radical quenchers. cis-parinaric acid is, however, air sensitive, photolabile and absorbs light in the UV region of the spectrum (at ˜320 nm). […] In practical terms, the results obtained using cis-parinaric as a probe for lipid peroxidation are confounded due to the overlapping of the compounds emission spectra with the cis-parinaric emission spectrum. C11-BODIPY^581/591 Oxidation to Measure Lipid Peroxidation To overcome the problem of spectral overlap using cis-parinaric acid, a fluorescence assay for lipid peroxidation using a lipophilic probe belonging to the BODIPY class of fluorescent dyes was used C11-BODIPY^581/591 (4,4-difluoro-5(4-phenyl-1,3-butadienyl)-4-bora-3a, 4a-diaza-s-indacene-3-propionic acid) fluorescent shifts from red to green upon oxidation. C11-BODIPY^581/591 (Molecular Probes, Eugene, Oreg., USA) stock solution concentrations were determined by measuring the absorption of C11-BODIPY^581/591 at 582 nm using a molar extinction coefficient of 140,000 mol^−1 cm^−1 (R. P. Haugland, (1999) Handbook of Fluorescent Probes and Research Chemicals, Molecular Probes, Inc., Eugene, Oreg.). The lipid peroxidation inducer 2,2′-Azobis (2-amidino-propane dihydrochloride) (AAPH) and the antioxidant compound α-tocopherol (α-TOH) were obtained from Sigma (St. Louis, Mo., USA). Phospholipid bilayers were prepared from 1-stearoyl-2-oleoyl-phosphatidylcholine (SOPC) and 1,2-dilinoleoyl-phosphatidylcholine (DLPC) and were purchased from Avanti® polar lipids, Inc., (Alabaster, Ala., USA). Preparation of Liposomes Phosphotidylcholine (PC) liposomes were prepared as described before (Guey-Shuang et al. (1982) Lipids. 17, 403-413). Briefly, DLPC (25 mg) were dissolved in chloroform and the solvent was removed by nitrogen evaporation (˜2 hours) to give a thin film of PC in a round bottom flask. The lipid film was hydrated with 50 mL of 10 mM Tris-HCl (pH 7.4), 100 mM KCl, shaken and sonicated for 15 seconds. The liposomes obtained were filtered several times through […] membrane filter. Measurement of C11-BODIPY^581/591 Oxidation C11-BODIPY^581/591 was incorporated into liposomes and oxidized by peroxyl radicals derived from the decomposition of AAPH in the presence and absence of compounds. Liposomes (1 mg/mL), suspended in 10 mM Tris-HCl (pH 7.4), 100 mM KCl, were transferred to a quartz 1 mL cuvette and placed in a Varian Cary Eclipse fluorometer (Varian, Cary, N.C.) equipped with a thermostatted cuvette holder at 40° C. Liposomes were pre-incubated for 10 min with 200 nM C11-BODIPY^581/591 to allow their incorporation into the lipid phase of the liposomes. After the addition of AAPH (10 mM) the decay of the red fluorescence was followed at λ exc=570 nm, λ em=600 nm. Relative fluorescence units were normalized to 100% intensity. Results obtained were verified by repeating experiments N=3 independent experiments. Measurement of C11-BODIPY^581/591 Oxidation in Cell Culture A quantitative FACS analysis of lipid peroxidation of FRDA lymphocytes, which had been treated with diethyl maleate following incubation in the presence and absence of the test compounds, was measured as described (Khdour et al. (2011) Pharmaceut. Res. 28, 2896-2909). Briefly, FRDA lymphocytes (5×10^5 cell/mL) were treated with the test compounds at final concentrations of 5 and 10 μM and incubated at 37° C. for 16 h in a humidified atmosphere containing 5% CO2 in air. […]

[2] = tested on: NADH oxidase (complexes I, III and IV); test: NADH oxidase activity (complexes I, III and IV) in submitochondrial particles; type: biochemical, bovine
[3] = tested on: Friedreich's ataxia lymphoblast cell line GM15850; test: Cytoprotection (trypan blue exclusion assay) of DEM-treated FRDA lymphocytes; type: cell-based; conditions: Homo sapiens, GM15850, DEM alone 18 ± 10% viability, read-out: Cytoprotection (cell viability, % of untreated control)
Summary of the method: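 GM15850 FRDA lymphoblasts at 5×10^5 cells/mL pre-incubated with test compounds for 17 h at 37 °C, then exposed to 5 mM DEM to deplete GSH. Viability by 0.4% trypan blue exclusion, ≥500 cells counted per group, expressed as % of non-DEM control; means±S.E.M., n=3.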

| Structure (SMILES) | inhibition at 5 µM [1] [%] | inhibition at 10 µM [1] [%] | NADH oxidase activity (Complex I, III, IV) % ([2]; 1 μM) | NADH oxidase activity (Complex I, III, IV) % ([2]; 5 μM) | NADH oxidase activity (Complex I, III, IV) % ([2]; 10 μM) [%] | viability at 1 µM [3] [%] | viability at 5 µM [3] [%] | inhibition at 1 µM ([1]; 1 μM) [%] | viability at 0.1 µM ([3]; 0.1 μM) [%] | viability at 0.5 µM [3] [%] | viability at 2.5 µM [3] [%] |
| --- | --- | --- | --- | --- | --- | --- | --- | --- | --- | --- | --- |
| CCCCCCCCCCCCCC1=C(NCCCC(=O)OCCCCCC)C(=O)C(C)=C(NCCCC(=O)OCCCCCC)C1=O [Compound 50, 2,5-bis(hexyl 4-aminobutanoate)-3-methyl-6-tridecylcyclohexa-2,5-diene-1,4-dione] | 18 ± 1 | 23 ± 4 | 85 ± 1^ % | 78 ± 6^ % | 70 ± 3 | 11 ± 2 | 91 ± 3 |  |  |  |  |
| CCCCCCCCCCCCCC1=C(OC)C(=O)C(C)=C(NCCCC(=O)OC(C)(C)C)C1=O [Compound 43, tert-butyl 4-(4-methoxy-2-methyl-3,6-dioxo-5-tridecylcyclohexa-1,4-dienylamino)butanoate] | 61 ± 4 | 75 ± 2 | 87 ± 2^ % | 85 ± 1^ % | 80 ± 1 | 67 ± 5 | 91 ± 6 |  |  |  |  |
| COC1=C2CCCCCCCCCCCCCCCNC(=CC1=O)C2=O [Compound 40] | 72 | 83 | 95 ± 3^ % | 85 ± 1^ % | 70 ± 1 |  | 92 ± 3.5 | 29 ± 4.7 | 36 ± 4.3 | 69 ± 2.3 | 83 |
| CCCCCCCCCCCCCC1=C(OC)C(=O)C=C(NCCCC(=O)OCCCCCC)C1=O [Compound 18, Hexyl 4-(4-methoxy-3,6-dioxo-5-tridecylcyclohexa-1,4-dienylamino)butanoate] | 81 ± 1.6 | 98 | 54 ± 5.0% | 27 ± 3.0% |  |  | 90 ± 2 |  |  |  |  |
| CCCCCCCCCCCCCC1=C(OC)C(=O)C(C)=C(NCCCC(=O)OCCCCCC)C1=O [Compound 49, Hexyl 4-(4-methoxy-2-methyl-3,6-dioxo-5-tridecylcyclohexa-1,4-dienylamino)butanoate] | 8 ± 3 | 13 ± 3 | 74 ± 2^ % | 83 ± 2^ % | 74 ± 2 | 16 ± 4 | 87 ± 4 |  |  |  |  |
| CCCCCCCCCCCCCC1=C(OC)C(=O)C(C)=C(NCCCC(=O)OCCCC)C1=O [Compound 46, Butyl 4-(4-methoxy-2-methyl-3,6-dioxo-5-tridecylcyclohexa-1,4-dienylamino)butanoate] | 60 ± 1 | 70 ± 3 | 86 ± 2^ % | 84 ± 4^ % | 68 ± 1 | 63 ± 4 | 95 ± 3 |  |  |  |  |
| CCCCCCCCCCCCCC1=C(OC)C(=O)C=C(NCCCC(=O)OC(C)(C)C)C1=O [Compound 7, tert-butyl 4-(4-methoxy-3,6-dioxo-5-tridecylcyclohexa-1,4-dienylamino)butanoate] | 72 ± 1.8 | 86 | 84 ± 1.0% | 77 ± 4.0% |  | 80 | 93 ± 4 |  |  | 80 | 84 ± 5 |
